Results from US7935341B2, “Antibodies to complementary peptides of thrombin or portions thereof” (Orthologic Corp., priority 2005, dated 2011).
No end group written: not given here.

Target: T1, biotinylated thrombin ([B]-thrombin) (Homo sapiens, UniProt P00734)
T1 construct: present in blood plasma in the form of a precursor, pro-thrombin
Assay: Binding of biotinylated thrombin to complementary peptides coated on ELISA plates
Conditions: for specific binding of [B]-thrombin to the complementary peptide: peptide-coated ELISA plate, total minus nonspecific binding (excess unlabeled thrombin), HRP-avidin readout at 450 nm
Method: Complementary peptides (CPs) (AC-23, 23C53, C1053 and ND1053) were coated onto individual wells of 96 well plates by incubating in a 10 μg/ml solution of peptide in carbonate buffer (pH 9.5) or in Phosphate Buffered Saline (PBS) overnight at room temperature. The amino acid sequences of particular complementary peptides are described below and are depicted in FIG. 4. In particular, the following CPs were generated:
Prior to use, the wells were covered with blocking solution containing 0.1% bovine serum albumin (BSA) to reduce non-specific binding. The plates were rinsed and stored at 4° C. until used. To perform the binding experiments, the peptide-coated ELISA plates were blocked with 200 μl per well of blocking buffer (0.1% BSA (w/v) in PBS) for 90 minutes at room temperature. The plates were subsequently rinsed two times with distilled water. Total and nonspecific (NS) binding was determined, respectively, by adding 100 μl per well of 125 ng/ml of biotinylated thrombin ([B]-thrombin) alone or containing 12.5 μg/ml of unlabeled thrombin for 90 minutes at room temperature. The plates were then rinsed four times with PBSTT (PBS+0.5% v/v Tween 20 (polyoxyethylene sorbitan monolaurate)), and 100 μl of Avidin-HRP antibody (Becton Dickinson) diluted to 1:1000 was added per well for 120 minutes at room temperature. The plates were subsequently rinsed four times with PBSTT, and 100 μl of Turbo TMB substrate (Pierce) was added for 30 minutes at room temperature. The reaction was stopped by adding 100 μl per well of 1 N H2SO4 and the plates were read immediately at 450 nm using a Spectra Max Plus plate reader (Molecular Device). The specific binding of [B]-thrombin to the coated wells was determined by subtracting non-specific binding from total binding.
Specific thrombin binding was determined using indicated concentrations of biotinylated thrombin alone and with a 100-fold excess of unlabeled thrombin (to define nonspecific binding).

Row | EC50 (increasing concentrations of [B]-thrombin on AC-23-coated wells, n=2±SD, read-out: half maximal binding of [B]-thrombin) [nM] | specific binding of [B]-thrombin to the complementary peptide | Sequence
1 | 4.8 ± 0.2 | specifically bound | KGSPTVTFTGIPCFPFIRLVTS [AC-23]
2 | – | not | TFTGIPSFPF (complementary peptides) [10C53]
3 | – | specifically bound | KGSPTVTFTGIPSFPFIRLVTS (complementary peptides) [23C53]
